Results as given in ChEMBL document CHEMBL5050844 (2019).

Key:
Format in all cases: functional, T cell line
[1] = Induction of anti-CD3/CD28 antibodies-stimulated human T cell activation at 1 uM assessed fold increase in CD25 expression measured by ELISA assay
[2] = Induction of anti-CD3 antibodies-stimulated human T cell activation at 8 uM assessed fold increase in IL-2 secretion measured by ELISA assay; note: reference of the scale not given here
[3] = Induction of anti-CD3/CD28 antibodies-stimulated human T cell activation at 4 uM assessed fold increase in IL-2 secretion measured by ELISA assay
[4] = Induction of anti-CD3/CD28 antibodies-stimulated human T cell activation at 1 uM assessed fold increase in IL-2 secretion measured by ELISA assay
[5] = Induction of anti-CD3 antibodies-stimulated human T cell activation at 1 uM assessed fold increase in CD25 expression measured by ELISA assay; note: reference of the scale not given here
[6] = Induction of anti-CD3/CD28 antibodies-stimulated human T cell activation at 0.3 uM assessed fold increase in IL-2 secretion measured by ELISA assay
[7] = Induction of anti-CD3/CD28 antibodies-stimulated human T cell activation at 0.3 uM assessed fold increase in CD25 expression measured by ELISA assay
[8] = Induction of anti-CD3 antibodies-stimulated human T cell activation at 1 uM assessed fold increase in IL-2 secretion measured by ELISA assay; note: reference of the scale not given here
[9] = Induction of anti-CD3 antibodies-stimulated human T cell activation at 8 uM assessed fold increase in CD25 expression measured by ELISA assay; note: reference of the scale not given here
[10] = Induction of anti-CD3/CD28 antibodies-stimulated human T cell activation at 4 uM assessed fold increase in CD25 expression measured by ELISA assay

| Compound | fold change (FC) [1] | fold change (FC) [2] | fold change (FC) [3] | fold change (FC) [4] | fold change (FC) [5] | fold change (FC) [6] | fold change (FC) [7] | fold change (FC) [8] | fold change (FC) [9] | fold change (FC) [10] |
| --- | --- | --- | --- | --- | --- | --- | --- | --- | --- | --- |
| C[C@H](Sc1nncn1C)c1cccc(NC(=O)c2cc3c(Cl)cccc3[nH]2)c1 | 1.01 | >=0.201 | 2.51 | 1.01 | 0.601 | 1.01 | <=1 | <=0.05 | 0.801 | 1.01 |
| C[C@H](Cc1nncn1C)c1cccc(NC(=O)c2cnn3cccnc23)c1 | <=1 | 0.051 | 1.01 | 1.01 | 0.601 | 1.01 | <=1 | 0.051 | 0.601 | 1.01 |
| Cn1cnnc1C(F)(F)C(C)(F)c1cccc(N2Cc3c(cccc3C(F)(F)F)C2=O)c1 (racemic) | 1.01 | >=0.201 | 1.01 | <=1 | 0.601 | <=1 | 1.01 | >=0.201 | 0.601 | 1.01 |
| C[C@H](Cc1nncn1C)c1cccc(NC(=O)c2[nH]nc3c2CCCC3)c1 | 1.01 | 0.051 | 1.01 | 1.01 | 0.601 | 1.01 | 1.01 | 0.051 | 0.801 | 1.01 |
| C[C@H](Sc1nncn1C)c1ccnc(N2Cc3c(cccc3C(F)(F)F)C2=O)c1 | <=1 | <=0.05 | 2.51 | 2.51 | <=0.6 | 2.51 | <=1 | <=0.05 | <=0.6 | <=1 |
| C[C@H](Sc1nnc[nH]1)c1cccc(NC(=O)c2cc3ccccc3cn2)c1 | <=1 | 0.051 | 1.01 | 1.01 | <=0.6 | 1.01 | <=1 | 0.051 | <=0.6 | <=1 |
| C[C@H](Sc1nncn1C)c1cccc(NC(=O)c2cc3ccccc3cn2)c1 | 1.01 | 0.051 | 1.01 | 1.01 | <=0.6 | 1.01 | 1.01 | <=0.05 | <=0.6 | 1.01 |
| CNC(=O)COc1ccc2cnc(C(=O)Nc3cccc([C@H](C)Sc4nncn4C)c3)cc2c1 | 1.01 | <=0.05 | 1.01 | 1.01 | <=0.6 | <=1 | 1.01 | <=0.05 | 0.801 | 1.01 |
| Cn1cnnc1[C@@H]1CC[C@@H]1c1cccc(N2Cc3c(cccc3C(F)(F)F)C2=O)c1 | 1.01 | >=0.201 | >=7.5 | >=7.5 | 0.601 | 5 | 1.01 | 0.101 | 0.801 | 1.01 |
| Cc1nc2cc([C@H](C)Sc3nncn3C)cc(NC(=O)c3cccc(C(F)(F)F)n3)c2o1 | 1.51 | >=0.201 | >=7.5 | 5 | 0.601 | 2.51 | 1.31 | <=0.05 | >=1.001 | >=1.76 |
| C[C@H](Cc1nncn1C)c1cccc(NC(=O)c2nc3c(C4CC4)cccc3[nH]2)c1 | 1.01 | >=0.201 | 2.51 | 1.01 | 0.601 | 1.01 | 1.01 | 0.051 | 0.801 | 1.01 |
| C[C@H](Cc1nncn1C)c1cc(NC2COC2)cc(N2Cc3c(cccc3C(F)(F)F)C2=O)c1 | 1.01 | 0.051 | 1.01 | 1.01 | 0.601 | <=1 | 1.01 | 0.051 | 0.801 | 1.01 |
| C[C@H](Sc1nncn1C)c1cccc(NC(=O)c2cc3cc(OCC(=O)NCCN)ccc3cn2)c1.Cl | <=1 | <=0.05 | 1.01 | <=1 | 0.601 | <=1 | <=1 | <=0.05 | 0.601 | 1.01 |
| C[C@H](Sc1nncn1C)c1cccc(NC(=O)c2cc(C(F)(F)F)cc(C(F)(F)F)n2)c1 | <=1 | <=0.05 | 1.01 | <=1 | <=0.6 | <=1 | <=1 | <=0.05 | 0.601 | 1.01 |
| C[C@H](Sc1nncn1C)c1ccnc(NC(=O)c2cc3c(C(F)(F)F)cccc3[nH]2)c1 | <=1 | <=0.05 | 1.01 | 1.01 | <=0.6 | 1.01 | <=1 | <=0.05 | <=0.6 | <=1 |
| Cc1conc1C[C@@H](C)c1cccc(NC(=O)c2ccnc(C(F)(F)F)n2)c1 | 1.01 | 0.101 | 2.51 | 1.01 | 0.801 | 1.01 | 1.01 | 0.051 | >=1.001 | 1.01 |
| Cc1ccc(C(=O)Nc2cc([C@H](C)Sc3nncn3C)ccn2)nc1C1CC1 | <=1 | <=0.05 | 5 | 2.51 | <=0.6 | 2.51 | <=1 | <=0.05 | <=0.6 | 1.01 |
| CC(C)c1cccc(C(=O)Nc2cccc([C@H](C)Sc3nncn3C)c2)n1 | 1.01 | <=0.05 | >=7.5 | 2.51 | <=0.6 | 2.51 | 1.01 | <=0.05 | 0.801 | 1.01 |
| Cc1c[nH]nc1C[C@H](C)c1cccc(N2Cc3c(cccc3C(F)(F)F)C2=O)c1 (single isomer, unassigned) | 1.01 | 0.151 | 1.01 | 1.01 | 0.601 | 1.01 | 1.01 | 0.101 | 0.801 | 1.01 |
| C[C@H](Cc1nncn1C)c1cccc(NC(=O)c2cc(C(C)(C)O)cc(C(F)(F)F)n2)c1 | 1.01 | >=0.201 | 5 | 2.51 | 0.801 | 1.01 | 1.01 | 0.101 | >=1.001 | 1.01 |
| COc1cc(C(=O)Nc2cccc([C@H](C)Cc3nncn3C)c2)nc(C(F)(F)F)c1 | 1.01 | 0.101 | 1.01 | 1.01 | 0.801 | 1.01 | 1.01 | 0.101 | 0.801 | 1.01 |
| CC(Cc1nncn1C)c1cc(N[C@@H]2CCOC2)nc(N2Cc3c(cccc3C(F)(F)F)C2=O)c1 (single isomer, unassigned) | 1.01 | 0.101 | 1.01 | 1.01 | 0.601 | 1.01 | <=1 | 0.051 | 0.801 | 1.01 |
